These results are taken from EPA's ToxValDB 9.5 (doi:10.2903/j.efsa.2010.1719).

Values after ≈ are worked out from the molar mass of the structure shown. Values joined by “and” are separate entries in the source; they are usually repeats but may differ in a detail not shown here. Equal values may be shown once. Where only a bound is given, the exact number is not on record here.

The test system of one data set is Bibionidae. The following applies: chronic/long-term; duration: 28 days.
The subject of the next data set is Danio rerio. As to conditions: mortality.
The subject of the next data set is Folsomia candida. As to conditions: chronic/long-term; duration: 28 days.
The test system of a further data set is Canidae. The following applies: chronic; duration: 1 years; oral; Dog Other; histopathology: nonneoplastic.
In a further data set the test system is Daphnia magna. As to conditions: chronic/long-term; duration: 21 days; reproduction.
Another data set deals with Colinus virginianus. As to conditions: for LD50: acute, oral, mortality.
In another data set the test system is Apis mellifera. The following applies: acute; duration: 48 hours; dermal; mortality.
A further data set relates to Mus musculus. As to conditions: acute; oral; M; mortality.

For `CCCN(CC)CC1COC2(CCC(C(C)(C)C)CC2)O1` (stereo not drawn) [Spiroxamine], the LC50 was greater than 1000 mg/kg in the data set on Tagia sp. (acute, duration: 14 days, mortality) and 2.41 µg/mL (≈ 8.1 µM) with Danio rerio (acute, duration: 96 hours). The NOEC is greater than 3750 mg/kg in the data set with Tagia sp. (chronic/long-term, duration: 56 days); 5.6 mg/L with Bibionidae; 0.002 mg/L in the data set with Danio rerio (chronic, duration: 230 days); 32 mg/kg in the data set with Folsomia candida; 0.034 mg/L with Daphnia magna. In addition, the NOAEL was found to be 2.5 mg/kg-day in the data set with Canidae and 10 mg/kg-day in the data set with Rattus norvegicus (acute, neurology). In addition, the LD50 is greater than 358 mg/kg-day in the data set with Colinus virginianus (diet); 565 mg/kg-day in the data set on Colinus virginianus; greater than 4.2 µg/piece with Apis mellifera; 460 mg/kg-day in the data set with Mus musculus; less than 560 mg/kg-day in the data set on Rattus norvegicus (acute, oral, F, mortality); 874 mg/kg-day in the data set on Anas platyrhynchos (short-term, oral, feed, mortality). Further, the NOEL in the data set on Colinus virginianus (reproduction developmental) was 2.02 mg/kg-day; in the data set on Rattus norvegicus (chronic), 9.19 mg/kg-day and 22.2 mg/kg-day; with Anas platyrhynchos (reproductive), 10.6 mg/kg-day.

What is called NOAEL is the highest dose or exposure tested at which no adverse effect was seen.
